The target in data set [1] is T1, washed human red blood cells (Homo sapiens, UniProt P05023).
T1 construct: washed human red blood cells obtained by venipuncture; endogenous in cells; host or cells: washed human red blood cells (venipuncture)
In words: Inhibition of ouabain-sensitive ^86 Rb uptake by washed human red blood cells. The data set is classed as cell-based. The protocol: Fractions from the column were assayed for inhibition of ouabain-sensitive ^86 Rb uptake by washed human red blood cells obtained by venipuncture. This assay was used as an index of sodium transport activity (Hamlyn, J.M. et al, J. Biol. Chem., 264:7395-7404 (1989)).
More specifically, freshly washed cells were incubated for 2 hr at 37° C. (16% final hematocrit) in a final volume of 150 μl of flux buffer comprising 150 mM NaCl, 2.0 mM […] containing tracer amounts of ^86 Rb (DuPont--New England Nuclesr), 1.0 mM MgCl2, 1.0 mM Na2 HPO4, 2.0 mM CaCl2, 5.0 mM glucose and 20 mM HEPES-Tris (pH 7.4) (hereinafter "flux fubber"). Incubations were initiated by addition of column fractions to the cells. Aliquots were removed at various times and mixed with ice-cold flux buffer lacking ^86 Rb to quench the reactions. The quenched reactions were applied to a silicone oil cushion (Hysol XF1792B, Dexter Corp., Olean, N.Y.) in microcentrifuge tubes and centrifuged at 800×g for 10 min at 4° C. The red cell pellet was cut from deep-frozen tubes and trapped ^86 Rb was determined by γ-counting. Flux data were expressed as nmol of Rb uptake/10^8 cells. In each case, a value of 1.11×10^13 cells/liter was used to convert packed cell volumes to cell number for the flux data calculations. Ouabain-insensitive ^86 Rb uptake was estimated in parallel experiments by inclusion of 1.0 mM ouabain in the flux buffer. Ouabain-sensitive ^86 Rb uptake was taken as the total uptake minus that obtained in the presence of 1.0 mM ouabain.
The inhibition of ouabain-sensitive uptake of ^86 Rb was carried out as described above.

Data set [2] deals with catechol-o-methyl transferase (COMT). In words: Substrate for catechol-o-methyl transferase (COMT). It is filed as in vitro ADME. Particulars: EDLF described in the present invention.
The target in data set [3] is T2, (Na^+ +K^+)ATPase (Canis lupus familiaris, UniProt P50997).
T2 construct: (Na^+ +K^+)ATPase was purified from the outer medulla of dog kidney; from tissue; host or cells: dog kidney outer medulla, purified membrane enzyme
The data set is described as follows: Competition for ^3 H-ouabain binding to purified (Na^+ +K^+)ATPase. Also on record: species or system dog. Particulars: competition for ^3 H-ouabain binding. The protocol:
More specifically, (Na^+ +K^+)ATPase was purified from the outer medulla of dog kidney using the angle rotor procedure (Jorgensen, P.L., Biochim. Biophys. Acta, 356:36-52 (1974)) and stored frozen at -60° C. at 1.0 mg/ml in 25 mM imidazole-HCl (pH 7.5) and 1.0 mM EDTA, in small aliquots. (Na^+ +K^+)ATPase activity was determined at 37° C. from rate measurements in 1.0 ml of coupled optical assay mixture comprising 20 mM KCl, 100 mM NaCl, 4.5 mM MgSO4, 5.0 mM EGTA, 3.0 mM ATP-Na2, 1.2 mM phosphoenol-pyruvate-tricyclohexylammonium, 0.3 mM NADH, 100 mM TES-Tris (ph 7.4), 5.0 units of lactate dehydrogenase, and 5.0 units of pyruvate kinase (Hamlyn, J.M. et al, Nature, 300:650-652 (1982)). (Na^+ +K^+)ATPase activity was 99% ouabain-inhibitable with activities of 10-18 μmol/min/mg of membrane protein. Maximally effective concentrations of digitalis-like activity had no effect on the enzymatic components of the coupled optical assay as determined by inspection of rates in response to addition of 20-50 μM ADP. The maximal capacity of the coupled optical assay was at least 500-2000 fold greater than the typical maximal hydrolytic rate of the (Na^+ +K^+)ATPase and was not rate limiting under any assay condition described herein.
Competition for ^3 H-ouabain (Amersham Corp. or DuPont-New England Nuclear) binding was carried out in 670 μl of binding buffer comprising, in final concentrations, 10 mM TES-Tris (pH 7.4), 0.5 mM EDTA, 5.0 mM MgCl2 and 5.0 mM Na2 HPO4 (hereinafter "binding buffer") and 50 nM ouabain containing ^3 H-ouabain tracer, and including the unknown sample. Binding was initiated by addition of 0.1-2 μg of purified (Na^+ +K^+)ATPase and the reaction performed for 2 hr at 37° C. […] Trapped ^3 H-ouabain was determined by scintillation counting, following 12 hr of soaking the filters in 4.0 ml of Beckman Ready Protein ™ scintillation cocktail (Beckman, Palo Alto, Calif.). […] All binding data were corrected for quench, and specific binding was expressed as pmol/mg of enzyme protein. […]

Setting [4] is: 50 ml of plasma equivalents from the UV peak at 32 min.

The term Hill coefficient denotes the slope factor of the fitted curve.

Molecules are shown by their SMILES.

With `CC1OC(OC2CC(O)C3(CO)C4C(O)CC5(C)C(C6=CC(=O)OC6)CCC5(O)C4CCC3(O)C2)C(O)C(O)C1O` (stereo not drawn) [human ouabain], the “effect on ouabain-insensitive uptake” value in data set [1] (setting [4]) is “no effect”. In data set [1] (setting [4]), the “inhibition of ouabain-sensitive ^86 Rb uptake” value came to 80%. Moreover, the values for the Hill coefficient in data set [1] (inhibition of ouabain-sensitive uptake of ^86 Rb) and in data set [3] were -0.99 and -0.97, respectively. Moreover, the “substrate for COMT” value in data set [2] is “not a substrate for COMT”. Also, the Kd in data set [3] (read-out: calculated apparent Kd value, 50 nM ouabain, 2 hr at 37° C.) is 7.7 nM.
